For this test, the system named is mutant Huntington (HTT) protein. The test can be described thus: HTT Mutant HTRF iPSC assay (mHTT protein lowering). The format is cell-based. The settings on record: human iPSC derived from a HTT patient with a poly-Q49 mutation.

The compound `Cc1cn2nc(-c3cc(F)c4nc(C5CCC6(CCN(C)C6)C5)cn4c3)cc(C)c2n1` (stereo not drawn) [Compound 232, 6-(8-fluoro-2-(2-methyl-2-azaspiro[4.4]nonan-7-yl)imidazo[1,2-a]pyridin-6-yl)-2,8-dimethylimidazo[1,2-b]pyridazine] registered an IC50 of under 100 nM.

With `Cc1cn2nc(-c3cc(F)c4nc(C5CNC5)cn4c3)cc(C)c2n1` [Compound 64], the IC50 fell in the range of 1000 to 9000 nM.

In turn, `Cn1cc2cc(-c3cc(F)c4nc(CC5CCCNC5)cn4c3)cc(F)c2n1` (stereo not drawn) [Compound 14, 7-fluoro-5-(8-fluoro-2-(piperidin-3-ylmethyl)imidazo[1,2-a]pyridin-6-yl)-2-methyl-2H-indazole] returned an IC50 of 100 to 1000 nM.

`Cc1cn2nc(-c3cc(F)c4nc([C@H]5[C@@H]6CN(CCF)C[C@@H]65)cn4c3)cc(C)c2n1` [Compound 216, 6-(8-fluoro-2-((1R,5S,6r)-3-(2-fluoroethyl)-3-azabicyclo[3.1.0]hexan-6-yl)imidazo[1,2-a]pyridin-6-yl)-2,8-dimethylimidazo[1,2-b]pyridazine] came in with a concentration for half-maximal inhibition (IC50) of 100 to 1000 nM.

Compound `Cc1cn2nc(-c3cc(F)c4nn(C5CCN(C)CC5)cc4c3)cc2c(C)n1` [Compound 371, 2-(7-fluoro-2-(1-methylpiperidin-4-yl)-2H-indazol-5-yl)-4,6-dimethylpyrazolo[1,5-a]pyrazine] had a half-inhibitory concentration (IC50) of 100 to 1000 nM.

Compound `Cc1cn2nc(-c3cc(F)c4nc(CC5CNC5)cn4c3)cc(C)c2n1` [Compound 13, 6-(2-(azetidin-3-ylmethyl)-8-fluoroimidazo[1,2-a]pyridin-6-yl)-2,8-dimethylimidazo[1,2-b]pyridazine] showed a half-inhibitory concentration (IC50) of 100 to 1000 nM.

For `COc1cc(-c2cc(F)c3nn(C4CCNCC4)nc3c2)nn2nc(C)nc12` [Compound 392, 6-(7-fluoro-2-(piperidin-4-yl)-2H-benzo[d][1,2,3]triazol-5-yl)-8-methoxy-2-methyl-[1,2,4]triazolo[1,5-b]pyridazine], the IC50 is 100 to 1000 nM.

Turning to `Cc1cn2nc(-c3cc(F)c4nc(C5CCN(CC6CC6)CC5)cn4c3)cc(C)c2n1` [Compound 165, 6-(2-(1-(cyclopropylmethyl)piperidin-4-yl)-8-fluoroimidazo[1,2-a]pyridin-6-yl)-2,8-dimethylimidazo[1,2-b]pyridazine], the 50% inhibitory concentration (IC50) was under 100 nM.

On to `CN1CCC(N(C)C(=O)c2cn3cc(-c4cc(F)c5nn(C)cc5c4)cc(F)c3n2)CC1` [Compound 129, 8-fluoro-6-(7-fluoro-2-methyl-indazol-5-yl)-N-methyl-N-(1-methyl-4-piperidyl)imidazo[1,2-a]pyridine-2-carboxamide], for which the IC50 was in the range of 1000 to 9000 nM.

Take `Cc1cn2nc(-c3cc(Cl)c4nc(C5CCNCC5)cn4c3)cc(C)c2n1` [Compound 556, 6-(8-chloro-2-(piperidin-4-yl)imidazo[1,2-a]pyridin-6-yl)-2,8-dimethylimidazo[1,2-b]pyridazine]: the IC50 lay within 100 to 1000 nM.

Consider `Cc1cn2nc(-c3cc(Cl)c4oc(C5CCNCC5)nc4c3)cc(C)c2n1` [Compound 535, 7-chloro-5-(2,8-dimethylimidazo[1,2-b]pyridazin-6-yl)-2-(4-piperidyl)-1,3-benzoxazole], for which the concentration for half-maximal inhibition (IC50) lay within 1000 to 9000 nM.

As to `CCN1CCC(c2cn3cc(-c4cc(C)c5nc(C)cn5c4)cc(F)c3n2)CC1` [Compound 27, 2-(1-ethylpiperidin-4-yl)-8-fluoro-2′,8′-dimethyl-6,6′-biimidazo[1,2-a]pyridine], the half-maximal inhibitory concentration (IC50) lay within 100 to 1000 nM.

`Fc1cc(-c2ccc3nsnc3c2)cn2cc(C3CCNCC3)nc12` [Compound 54, 5-(8-fluoro-2-(piperidin-4-yl)imidazo[1,2-a]pyridin-6-yl)benzo[c][1,2,5]thiadi azole] yielded a 50% inhibitory concentration (IC50) of 1000 to 9000 nM.

`Cc1cn2nc(-c3cc(F)c4nc(C(=O)NC[C@H]5CCCCN5C)cn4c3)cc(C)c2n1` [Compound 335, 6-(2,8-dimethylimidazo[1,2-b]pyridazin-6-yl)-8-fluoro-N-[[(2R)-1-methyl-2-piperidyl]methyl]imidazo[1,2-a]pyridine-2-carboxamide]: the IC50 is 100 to 1000 nM.

In the case of `Cc1cn2nc(-c3cc(F)c4nc(C5CCNC6(CC6)C5)cn4c3)cc(C)c2n1` (stereo not drawn) [Compound 110, 6-(8-fluoro-2-(4-azaspiro[2.5]octan-7-yl)imidazo[1,2-a]pyridin-6-yl)-2,8-dimethylimidazo[1,2-b]pyridazine], the IC50 is under 100 nM.

Regarding `Cc1cn2nc(-c3cc(F)c4nc(C[C@H]5C[C@@H](N)C5)nn4c3)cc(C)c2n1` [Compound 450, (1s,3s)-3-((6-(2,8-dimethylimidazo[1,2-b]pyridazin-6-yl)-8-fluoro-[1,2,4]triazolo[1,5-a]pyridin-2-yl)methyl)cyclobutan-1-amine], the IC50 was 100 to 1000 nM.

In turn, `Cc1cn2cc(-c3cc(F)c4nc(CC5CCCNC5)cn4c3)cc(F)c2n1` (stereo not drawn) [Compound 15, 8,8′-difluoro-2-methyl-2′-(piperidin-3-ylmethyl)-6,6′-biimidazo[1,2-a]pyridine] gave a 50% inhibitory concentration (IC50) of 100 to 1000 nM.

With `Cc1cn2nc(-c3cc(F)c4nc(C5CCNCC5)cn4c3)cc2c(C)n1` [Compound 195, 2-(8-fluoro-2-(piperidin-4-yl)imidazo[1,2-a]pyridin-6-yl)-4,6-dimethylpyrazolo[1,5-a]pyrazine], the IC50 is under 100 nM.

`CCN1CCC(c2cn3cc(-c4cc(C)c5nc(C)cn5n4)cc(F)c3n2)CC1` [Compound 112, 6-(2-(1-ethylpiperidin-4-yl)-8-fluoroimidazo[1,2-a]pyridin-6-yl)-2,8-dimethylimidazo[1,2-b]pyridazine] came in with an IC50 of under 100 nM.

As to `Cc1cn2nc(-c3cc(F)c4nc(NC(=O)C5CCCN(C)C5)cn4c3)cc(C)c2n1` (single isomer, unassigned) [Compound 277], the IC50 was under 100 nM.

For the compound `CCc1nc(C)cn2cc(-c3cc(F)c4nn(C5CCNCC5)nc4c3)cc12` [Compound 379, 6-(1-ethyl-3-methylpyrrolo[1,2-a]pyrazin-7-yl)-4-fluoro-2-(piperidin-4-yl)-2H-benzo[d][1,2,3]triazole], the half-inhibitory concentration (IC50) was 100 to 1000 nM.

As for `Cc1cn2nc(-c3cc(F)c4nc(N5CCC(N(C)C)CC5)oc4c3)cc(C)c2n1` [Compound 475, 1-(6-(2,8-dimethylimidazo[1,2-b]pyridazin-6-yl)-4-fluorobenzo[d]oxazol-2-yl)-N,N-dimethylpiperidin-4-amine], the half-maximal inhibitory concentration (IC50) is under 100 nM.

`Cc1cn2nc(-c3cc(F)c4nc(C56CC(C5)N(C)C6)cn4c3)cc(C)c2n1` [Compound 80] came in with a half-maximal inhibitory concentration (IC50) of 100 to 1000 nM.

In the case of `CCC1(N(C)C)CCN(c2nc3c(F)cc(-c4cc(C)c5nc(C)cn5n4)cc3o2)CC1` [Compound 492, 1-(6-(2,8-dimethylimidazo[1,2-b]pyridazin-6-yl)-4-fluorobenzo[d]oxazol-2-yl)-4-ethyl-N,N-dimethylpiperidin-4-amine], the half-maximal inhibitory concentration (IC50) was under 100 nM.

Compound `Cc1cn2nc(-c3cc(F)c4nc([C@H]5[C@@H]6CN(C7CC7)C[C@@H]65)cn4c3)cc(C)c2n1` [Compound 204, 6-(2-((1R,5S,6r)-3-cyclopropyl-3-azabicyclo[3.1.0]hexan-6-yl)-8-fluoroimidazo[1,2-a]pyridin-6-yl)-2,8-dimethylimidazo[1,2-b]pyridazine] came in with a half-inhibitory concentration (IC50) of 100 to 1000 nM.

Regarding `CCc1nc(C)cn2cc(-c3cc(F)c4nc(C5CCN(CC)CC5)cn4c3)cc12` [Compound 175, 6-(1-ethyl-3-methylpyrrolo[1,2-a]pyrazin-7-yl)-2-(1-ethylpiperidin-4-yl)-8-fluoroimidazo[1,2-a]pyridine], the IC50 was 100 to 1000 nM.

`Cn1cc2cc(-c3cc(F)c4nc(C5CCNC5)cn4c3)ccc2n1` (stereo not drawn) [Compound 65, 5-(8-fluoro-2-(pyrrolidin-3-yl)imidazo[1,2-a]pyridin-6-yl)-2-methyl-2H-indazole] gave a concentration for half-maximal inhibition (IC50) of 1000 to 9000 nM.

In turn, `Cc1cn2nc(-c3cc(F)c4nc(N5CCC(N6CCCC6)CC5)oc4c3)cc(C)c2n1` [Compound 477, 6-(2,8-dimethylimidazo[1,2-b]pyridazin-6-yl)-4-fluoro-2-(4-(pyrrolidin-1-yl)piperidin-1-yl)benzo[d]oxazole] had an IC50 of 100 to 1000 nM.

In turn, `Cc1cn2nc(-c3cc(F)c4nc(C56CC(N)(C5)C6)cn4c3)cc(C)c2n1` [Compound 91] showed an IC50 of under 100 nM.

Compound `COc1cc(-c2cc(F)c3nn(C4CCN(C)CC4)cc3c2)nn2nc(C)nc12` [Compound 358, 6-(7-fluoro-2-(1-methylpiperidin-4-yl)-2H-indazol-5-yl)-8-methoxy-2-methyl-[1,2,4]triazolo[1,5-b]pyridazine] displayed an IC50 of under 100 nM.

The compound `Cc1cn2nc(-c3cc(F)c4nn(C5CCN(C6CC6)CC5)cc4c3)cc(C(F)F)c2n1` [Compound 354, 6-(2-(1-cyclopropylpiperidin-4-yl)-7-fluoro-2H-indazol-5-yl)-8-(difluoromethyl)-2-methylimidazo[1,2-b]pyridazine] registered a half-inhibitory concentration (IC50) of 100 to 1000 nM.

As to `Cc1cn2nc(-c3cc(F)c4nc(CC5CCN(C)CC5)oc4c3)cc(C)c2n1` [Compound 459, 6-(2,8-dimethylimidazo[1,2-b]pyridazin-6-yl)-4-fluoro-2-((1-methylpiperidin-4-yl)methyl)benzo[d] oxazole], the IC50 was under 100 nM.

On to `Fc1cc(-c2ccc3[nH]ncc3c2)cn2cc(C3CCNCC3)nc12` [Compound 59, 5-(8-fluoro-2-(piperidin-4-yl)imidazo[1,2-a]pyridin-6-yl)-1H-indazole], for which the half-inhibitory concentration (IC50) lay within 1000 to 9000 nM.

As to `Cc1cn2cc(-c3cc(F)c4nc(C5CCNCC5)cn4c3)ccc2n1` [Compound 96, 8-fluoro-2′-methyl-2-(piperidin-4-yl)-6,6′-biimidazo[1,2-a]pyridine], the IC50 lay in the range of 1000 to 9000 nM.

The compound `Cc1cn2nc(-c3cc(F)c4[nH]c(C5C6CN(C)CC65)nc4c3)cc(C)c2n1` (stereo not drawn) [Compound 430, 6-(7-fluoro-2-(3-methyl-3-azabicyclo[3.1.0]hexan-6-yl)-1H-benzo[d]imidazol-5-yl)-2,8-dimethylimidazo[1,2-b]pyridazine] came in with a 50% inhibitory concentration (IC50) of under 100 nM.

`Cc1cn2nc(-c3cc(F)c4nc(NC(=O)C5CCN(C)CC5)nn4c3)cc(C)c2n1` [Compound 327, N-(6-(2,8-dimethylimidazo[1,2-b]pyridazin-6-yl)-8-fluoro-[1,2,4]triazolo[1,5-a]pyridin-2-yl)-1-methylpiperidine-4-carboxamide]: the IC50 is under 100 nM.
